Results as given in patent publication US12622916B2, “Use of H3K9me3 modulation for enhancing cognitive function” (THE REGENTS OF THE UNIVERSITY OF CALIFORNIA, priority 2015, dated 2026).
“Also recorded” adds a separate entry of the source.

What was measured:
[1] = biological target: histone acetyltransferase p300 (Homo sapiens, UniProt Q09472); assay: Inhibitory activity towards histone acetyltransferase p300; type: biochemical
From the text: (§1) In accordance with one or more embodiments of the present invention, the role of H3K9me3 in learning and memory in an animal model of aging using a newly developed analog of the epidithiodiketopiperazine alkaloid chaetocin A called ETP69, illustrated in FIG. 1, is studied.

CA1 pyramidal neurons = assay: Spine counts (Golgi staining) on CA1 pyramidal neurons of aged mice; type: in vivo; settings: 10 mg/kg i.p., 24 hours
Protocol: Spine counts: In another series of experiments 10 aged mice (20-22 months) were injected with ETP69 (10 mg/kg; i.p) or vehicle (i.p) and 24 hours later the animals were euthanized and the brains were separated into two hemispheres. Right hemisphere was used for Golgi staining and the left was processed for flow synaptometry. Staining was conducted according to manufacturer's information (Golgi-Cox, Bioenna).
Specifically, we counted and classified spines on CA1 pyramidal neurons. Dendrite segments from neurons in CA1 of the hippocampus were imaged by confocal microscopy and a blinded investigator counted and classified dendritic spines according to their morphology. Spines were manually counted and classified as thin, mushroom, or stubby, according to previously described criteria.
For each animal, at least 3 pyramidal neurons and 200 μm of total dendrite length and 250-500 spines were analyzed (n=5 animals per group). All of the neurons were chosen from the dorsal part of the CA1 hippocampal region (according with it essential role in spatial memory) and were completely stained along basal and apical dendrites. FIG. 10 presents representative images showing effect of ETP69 treatment on spines in the CA1 of the hippocampus.

aged mice = assay: Contextual fear conditioning in aged mice; type: in vivo; settings: 10 mg/kg i.p., versus aged controls
Protocol: Fear conditioning: 14 aged (18-20 months) male mice were placed in the fear-conditioning chamber were allowed to explore for 2 minutes before receiving one electric foot shocks (2 seconds, 0.2 mA). Animals were returned to the home cage 2 minutes after the foot shock.

BDNF = assay: ELISA for BDNF protein in hippocampus; type: in vivo; settings: aged mice; 10 mg/kg i.p. before or right after OLM acquisition; versus controls
Protocol: Acquisition (pre-training) or Consolidation (post-training): In another test, aimed to determine the efficacy of the compound in pre and post training paradigms, the same group of 22 aged animals were retested on the OLM task 3 weeks after the first test. To determine whether the drug impacted acquisition or consolidation mechanisms, mice were injected with the 10 mg/kg compound (i.p. n=7) or vehicle (n=8). Animals were sacrificed right after retention testing (i.e. 24 hours post injection), and hippocampi were removed, rapidly frozen on dry ice, and stored at −80° C. until processing for trimethylation levels and BDNF assay. FIG. 2 is a graphical representation of the effect of the drug at 10 mg/kg and 20 mg/kg (i.p) administered 30 minutes prior to acquisition phase in the novel place position task in mice. […] Data are mean±SEM; n=7 or 8/group.
ELISA was performed using the BDNF Emax Immunoassay System (G7610, Promega) according to the manufacturer's instructions. Two sets of samples were prepared from the hippocampus of each animal, and all reactions were performed in duplicate.

[2] = test system: panel of 17 human histone methytransferases; assay: Selectivity against a panel of 17 human histone methyltransferases; type: biochemical; settings: versus chaetocin A
From the text: as §1

bdnf promoters = assay: ChIP for H3K9me3 at BDNF promoter regions in hippocampus; type: in vivo; settings: aged mice, ETP69 versus controls
Protocol: ChIP for BDNF promoter regions: After cross-linking with 1% formaldehyde, chromatin was sheared to fragments of 200-500 bp. Immunoprecipitation was realized overnight at 4° C. with an antibody directed against histone H3K9me3 (H3K9me3; Millipore). After washes, elution from beads, and reversal of the cross-link, immunoprecipitated DNA was purified and analyzed in triplicate by qRT-PCR with an internal standard curve prepared from pooled input samples. Each sample was normalized with the respective input value. Primers for bdnf promoters for exon I, IV, and VI correspond to each unique exon sequence. RT-qPCR primer sets were designed using the Roche Universal Probe Library Assay Design Center and obtained from Integrated DNA Technologies (Coralville, IA). RT-qPCR reactions were run in a Stratagene MX3005P thermocycler at 95° C. for 3 min, followed by 45 cycles of 95° C. for 10 s, and 58° C. for 15 s. Each RT-qPCR run included all samples run in triplicate and a standard curve. Data were analyzed by the 2^−ΔΔct method and expressed as fold change over control after normalizing with input samples, as described previously.

[3] = test system: 14 DIV hippocampal neurons; assay: Oxygen-glucose deprivation (OGD)-induced cytotoxicity, LDH assay; type: cell-based; settings: OGD 2 hours, LDH 48 hours after OGD
Protocol: OGD in 14 DIV hippocampal neurons was induced by an approach similar to that described by Newcomb-Fernandez et al (2001). Normal media was replaced with PBS and culture plates were placed in an airtight chamber. The chamber was flushed with N2 and CO2 for 3 minutes, sealed, and placed in a 37° C. incubator for 2 hours. PBS was replaced with DMEM (serum-free) and cultures were returned to a normoxic environment. Culture medium was collected 48 hours after the cultures had returned to a normal environment. The cytotoxicity was measured by LDH assay (Thermo-Fisher). To calculate % Cytotoxicity, subtract the LDH activity of the Spontaneous LDH, release Control (water-treated) from the chemical-treated sample LDH activity, divide by the total LDH activity [(Maximum LDH Release Control activity)—(Spontaneous LDH Release Control activity)], and multiply by 100:
Initially we tested the effect of ETP69 on oxygen-glucose deprivation (OGD)-induced cytotoxicity. Mature hippocampal neurons (14 DIV) were treated with OGD for 2 hours in the presence or absence of ETP69. Cytotoxicity was measured by LDH assay 48 hours after OGD. […] FIG. 13 is a graphical illustration of the effect of ETP69 on neuronal survival after oxygen-glucose deprivation (OGD). 14 DIV hippocampal neurons were treated with OGD for 2 hours in the presence or absence of ETP. Cytotoxicity was measured by LDH assay 48 hours after OGD. […]

CREB = CREB phosphorylation at Ser133 by Western blotting; type: cell-based
From the text: FIG. 16 is an image illustrating ETP69 increased CREB phosphorylation at Ser133 measured by Western blotting. CREB is a transcription factor whose activation is involved in synaptic plasticity and memory formation.

Sequence of histone acetyltransferase p300 (Q09472 whole entry, species assumed): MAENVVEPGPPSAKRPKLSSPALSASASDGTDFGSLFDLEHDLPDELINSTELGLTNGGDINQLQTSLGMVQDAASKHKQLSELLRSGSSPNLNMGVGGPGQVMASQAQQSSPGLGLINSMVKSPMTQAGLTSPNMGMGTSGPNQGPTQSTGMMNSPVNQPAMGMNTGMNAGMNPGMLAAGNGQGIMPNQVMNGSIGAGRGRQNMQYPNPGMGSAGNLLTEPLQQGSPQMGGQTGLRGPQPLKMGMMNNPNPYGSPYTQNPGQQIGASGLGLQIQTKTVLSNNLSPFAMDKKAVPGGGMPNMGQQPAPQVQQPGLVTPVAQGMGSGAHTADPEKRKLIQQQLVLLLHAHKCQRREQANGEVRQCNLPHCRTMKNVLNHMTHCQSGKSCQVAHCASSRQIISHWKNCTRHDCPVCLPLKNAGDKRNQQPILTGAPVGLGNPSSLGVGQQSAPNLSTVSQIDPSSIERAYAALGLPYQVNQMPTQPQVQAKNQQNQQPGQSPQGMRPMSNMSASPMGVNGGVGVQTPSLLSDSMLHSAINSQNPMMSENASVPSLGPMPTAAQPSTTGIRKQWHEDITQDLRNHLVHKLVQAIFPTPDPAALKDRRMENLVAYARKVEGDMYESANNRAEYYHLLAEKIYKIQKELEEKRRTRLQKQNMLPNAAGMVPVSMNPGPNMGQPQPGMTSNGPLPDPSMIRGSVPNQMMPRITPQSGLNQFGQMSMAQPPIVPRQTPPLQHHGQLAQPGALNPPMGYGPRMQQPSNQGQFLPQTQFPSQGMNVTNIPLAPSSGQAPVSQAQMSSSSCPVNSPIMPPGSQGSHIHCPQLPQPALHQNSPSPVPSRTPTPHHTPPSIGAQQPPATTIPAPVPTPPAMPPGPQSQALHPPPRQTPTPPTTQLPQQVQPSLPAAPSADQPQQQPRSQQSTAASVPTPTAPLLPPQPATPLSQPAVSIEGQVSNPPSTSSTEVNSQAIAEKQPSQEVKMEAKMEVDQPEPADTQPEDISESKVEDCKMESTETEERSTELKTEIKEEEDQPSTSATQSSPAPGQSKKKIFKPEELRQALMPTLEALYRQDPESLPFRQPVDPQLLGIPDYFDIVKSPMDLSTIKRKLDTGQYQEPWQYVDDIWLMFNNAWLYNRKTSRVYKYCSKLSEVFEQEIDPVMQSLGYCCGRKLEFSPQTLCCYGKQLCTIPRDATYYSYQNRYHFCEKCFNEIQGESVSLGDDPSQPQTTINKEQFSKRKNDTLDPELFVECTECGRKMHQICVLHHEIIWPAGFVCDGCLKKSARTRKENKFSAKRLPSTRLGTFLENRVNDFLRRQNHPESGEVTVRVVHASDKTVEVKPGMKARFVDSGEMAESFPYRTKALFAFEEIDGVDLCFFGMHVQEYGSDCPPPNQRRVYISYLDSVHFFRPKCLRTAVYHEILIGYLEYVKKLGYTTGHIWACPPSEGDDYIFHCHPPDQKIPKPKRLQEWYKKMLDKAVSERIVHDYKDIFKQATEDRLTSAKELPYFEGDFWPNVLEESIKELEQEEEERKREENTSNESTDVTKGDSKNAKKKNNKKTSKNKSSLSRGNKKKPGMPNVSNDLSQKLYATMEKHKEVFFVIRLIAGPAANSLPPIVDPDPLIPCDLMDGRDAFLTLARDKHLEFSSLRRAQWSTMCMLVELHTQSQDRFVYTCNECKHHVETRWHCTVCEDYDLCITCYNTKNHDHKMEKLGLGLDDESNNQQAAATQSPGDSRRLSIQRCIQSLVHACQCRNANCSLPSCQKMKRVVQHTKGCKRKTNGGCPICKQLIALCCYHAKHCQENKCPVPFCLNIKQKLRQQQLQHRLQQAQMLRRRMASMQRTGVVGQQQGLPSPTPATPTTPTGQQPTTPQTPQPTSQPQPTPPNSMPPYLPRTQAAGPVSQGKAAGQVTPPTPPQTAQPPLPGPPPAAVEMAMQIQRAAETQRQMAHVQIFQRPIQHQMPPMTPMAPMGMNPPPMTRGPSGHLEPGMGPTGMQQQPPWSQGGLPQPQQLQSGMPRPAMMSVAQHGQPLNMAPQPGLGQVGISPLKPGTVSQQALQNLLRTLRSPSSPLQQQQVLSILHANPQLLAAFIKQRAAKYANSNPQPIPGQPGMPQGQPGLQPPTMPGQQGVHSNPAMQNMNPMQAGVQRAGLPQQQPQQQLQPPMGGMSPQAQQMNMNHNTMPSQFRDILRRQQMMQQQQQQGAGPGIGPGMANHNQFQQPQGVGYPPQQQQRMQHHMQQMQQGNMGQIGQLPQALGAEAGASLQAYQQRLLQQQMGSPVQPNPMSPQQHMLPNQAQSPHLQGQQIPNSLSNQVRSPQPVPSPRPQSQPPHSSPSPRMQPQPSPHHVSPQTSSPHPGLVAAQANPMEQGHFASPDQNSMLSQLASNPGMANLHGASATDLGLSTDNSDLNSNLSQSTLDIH

Q: Which “inhibitory activity towards histone acetyltransferase p300” value [1] does the source give for CN1C(=O)[C@@]23C[C@](C)(C#N)[C@H](c4ccc5c(c4)OCO5)N2C(=O)[C@]1(C)SS3 (racemic) [ETP69, Rac-(3S,6S,7S,8aS)-6-(benzo[d][1,3]dioxol-5-yl)-2,3,7-trimethyl-1,4-dioxohexahydro-6H-3,8a-epidithiopyrrolo[1,2-a]pyrazine-7-carbonitrile] here?
A: no inhibitory activity

Q: What about the “density of stubby spines” value (CA1 pyramidal neurons; CA1) of the same compound?
A: significantly higher density

Q: What about the “density of thin spines” value (CA1 pyramidal neurons; CA1) of the same compound?
A: significantly higher density

Q: And the “numbers of mushroom spines/length of dendrite” value (CA1 pyramidal neurons; CA1)?
A: no difference

Q: What about the “increase in total number of spines per length of dendrite compared to controls” value (CA1 pyramidal neurons; CA1 hippocampus) of the same compound?
A: 45%

Q: And the “contextual fear conditioning performance (freezing)” value (aged mice)?
A: improved performance

Q: And the “BDNF protein levels in hippocampus” value (BDNF)?
A: significantly elevated levels of BDNF

Q: What about the “selectivity against a panel of 17 human histone methytransferases compared with chaetocin A” value [2] of the same compound?
A: significantly greater selectivity

Q: And the “H3K9me3 at bdnf promoter I (Exon 1)” value (bdnf promoters)?
A: significant effect of treatment; also recorded: significantly lower

Q: And the “OGD-induced cytotoxicity (LDH)” value ([3]; 4 nM)?
A: rescued neurons from OGD-induced cytotoxicity

Q: What about the “OGD-induced cytotoxicity (LDH)” value ([3]; 100 nM) of the same compound?
A: not 100 nM rescued neurons from OGD-induced cytotoxicity

Q: What about the “phosphorylation of CREB at Ser133” value (CREB) of the same compound?
A: increased phosphorylation
